Test system: isolated Langendorff-perfused rat heart
Experiment: Isolated perfused heart according to Langendorff: perfusion pressure and wash-out score (C-1.2)
Details: for Perfusion pressure (%) (timepoint at 20 min) Mean: isolated Langendorff-perfused rat heart; for Perfusion pressure (%) (timepoint at 90 min) Mean: wash-out phase; for wash-out score: PP recovery after 60 min of washout related to maximum drop of PP; for wash-out score / effect on perfusion pressure (PP): comparative example 11 300 nmol/l, others 100 nmol/l, n=6
Procedure: Male Wistar rats (strain HsdCpb:WU) with a body weight of 200-250 g were anaesthetized with Narcoren® (100 mg/kg). The thorax was opened and the heart was then exposed, excised and connected to a Langendorff apparatus by placing a cannula into the aorta. The heart was perfused retrogradely at 9 ml/min at constant flow with a Krebs-Henseleit buffer solution (gassed with 95% O2 and 5% CO2, pH 7.4, 35° C.; composition in mmol/l: NaCl 118; KCl 3; NaHCO3 22; KH2PO4 1.2; MgSO4 1.2; CaCl2 1.8; Glucose 10; Na pyruvate 2). A pressure transducer registered the perfusion pressure in the perfusion system. The left ventricular pressure (LVP) was measured using a second pressure transducer connected to a water-filled balloon which was inserted into the left ventricle via the left atrium. The end diastolic pressure was initially set to 8 mm Hg by adjusting the volume of the balloon. The hearts were spontaneously beating. The signals from the pressure transducer were amplified, registered by a personal computer (Powerlab Chart software, ADInstruments).
Then the hearts were perfused for a further 120 min without the test substance (wash-out phase). The reversibility of the effect (wash-out score) was calculated as a percentage of the PP recovery after 60 min of washout related to the maximum drop of PP induced by the test compound. The wash-out score obtained in this manner was taken as a measure for the residence time of the test substance at the site of action.

| SMILES | Wash-out score (%) after 60 min (100 nmol/l) [%] | Perfusion pressure (%) (timepoint at 20 min) Mean (100 nmol/l) | Perfusion pressure (%) (timepoint at 90 min) Mean (100 nmol/l) | wash-out score [%] | effect on perfusion pressure (PP) | Wash-out score (%) after 60 min (300 nmol/l) [%] | Perfusion pressure (%) (timepoint at 20 min) Mean (300 nmol/l) | Perfusion pressure (%) (timepoint at 90 min) Mean (300 nmol/l) |
| --- | --- | --- | --- | --- | --- | --- | --- | --- |
| O=C(O)CCCCN(CCc1cc(F)ccc1OCc1ccc(-c2nc3cc(Cl)ccc3o2)cc1)C1CCCc2nc(C(=O)O)ccc21 (single isomer, unassigned) [comparative example 3, (5)-{(4-carboxybutyl)[2-(2-{[4-(5-chloro-1,3-benzoxazol-2-yl)benzyl]oxy}-5-fluorophenyl)ethyl]amino}-5,6,7,8-tetrahydroquinoline-2-carboxylic acid] | 25.4 | 63.3 | 72.5 | 25.4 | pronounced reduction of perfusion pressure | – | – | – |
| O=C(O)CCCCN(CCc1ccccc1OCc1ccc(CCc2ccccc2)cc1)Cc1ccc(C(=O)O)cc1 [comparative example 1, 4-[((4Carboxybutyl)-{2-[(4-phenethylbenzyl)oxy]phenethyl}amino)methyl]benzoic acid] | – | – | – | 30 | pronounced reduction of perfusion pressure | – | – | – |
| O=C(O)c1ccc(CCN(CCc2ccccc2OCc2ccc(-c3ccc(C(F)(F)F)cc3)cc2Cl)[C@H]2CCCc3nc(C(=O)O)ccc32)cc1 [comparative example 11, (5S)-5-{[2-(4-carboxyphenyl)ethyl][2-(2-{[3-chloro-4′-(trifluoromethyl)[biphenyl]-4-yl]methoxy}phenyl)ethyl]amino}-5,6,7,8-tetrahydroquinoline-2-carboxylic acid] | – | – | – | 2.9 | pronounced reduction of perfusion pressure | 2.9 | 69.0 | 71.9 |
